Results on 23 compounds are retold here after US20200253978A1, “HETEROCYCLICS AS INHIBITORS OF FIBROBLAST GROWTH FACTOR RECEPTOR” (ADVENT PHARMA CO. LTD., priority 2017, published 2020).

Assay [1] deals with T1, BaF3 cells expressing Tel-FGFR-1 and luciferase (Homo sapiens, UniProt P11362).
T1 construct: Luciferase is co-expressed as a viability reporter and is not part of the key; P41212 (Transcription factor ETV6)
The experiment in a line: BaF3 cellular growth inhibition assay, Tel-FGFR-1 and luciferase (Bright-Glo). Format: cell-based. The note with it: BaF3 Tel-FGFR-1 cells, 2 days incubation, 50% growth inhibition vs DMSO. On the procedure: (§1) Compounds' inhibitory activities against FGFR-4 or FGFR-1 were measured in BaF3 cells expressing Tel-FGFR-4 and luciferase or Tel-FGFR-1 and luciferase, whose growth was dependent on FGFR-4 or FGFR-1 kinase but independent of IL-3. The cells were plated in 384-well plates in RPMI1640 with 10% FBS. Compounds were added as 11-point dilutions. Cell viability was determined by Bright-Glo luciferase assay (Promega) after cells were incubated with compounds for 2 days. The IC50 value was determined as the concentration for 50% growth inhibition compared to DMSO treated cells (A: IC50<0.1 μM; B: IC50 between 0.1 μM and 1 μM; C: IC50 between 1 μM and 10 μM).

Assay [2] deals with T2, BaF3 cells expressing Tel-FGFR-4 and luciferase (Homo sapiens, UniProt P22455).
T2 construct: Luciferase is co-expressed as a viability reporter and is not part of the key; P41212 (Transcription factor ETV6)
The experiment in a line: BaF3 cellular growth inhibition assay, Tel-FGFR-4 and luciferase (Bright-Glo). The format is cell-based. The settings on record: BaF3 Tel-FGFR-4 cells, 2 days incubation, 50% growth inhibition vs DMSO. The procedure: as §1

T2 sequence (P22455 467-755 limits assumed): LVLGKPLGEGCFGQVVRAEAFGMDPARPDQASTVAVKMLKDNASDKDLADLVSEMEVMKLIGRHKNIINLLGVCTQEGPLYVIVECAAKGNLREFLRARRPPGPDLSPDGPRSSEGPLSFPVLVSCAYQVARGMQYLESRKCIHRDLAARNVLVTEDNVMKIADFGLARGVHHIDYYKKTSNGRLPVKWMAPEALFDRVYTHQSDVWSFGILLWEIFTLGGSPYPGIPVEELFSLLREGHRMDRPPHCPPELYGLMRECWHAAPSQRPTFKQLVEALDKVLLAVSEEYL
T1 sequence (P11362 478-767 limits assumed): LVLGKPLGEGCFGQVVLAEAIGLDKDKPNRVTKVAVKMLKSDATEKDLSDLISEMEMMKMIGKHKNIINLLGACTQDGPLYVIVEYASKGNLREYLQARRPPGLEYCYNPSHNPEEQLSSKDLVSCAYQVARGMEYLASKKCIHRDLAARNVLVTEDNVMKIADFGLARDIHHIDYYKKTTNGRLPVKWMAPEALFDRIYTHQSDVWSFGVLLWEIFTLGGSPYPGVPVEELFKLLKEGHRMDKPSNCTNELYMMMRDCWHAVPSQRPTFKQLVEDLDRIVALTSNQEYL

For orientation: IC50 means the concentration needed to halve the response being measured. As for `C=CC(=O)Nc1cc(N2CCN(CC)CC2)ccc1Nc1cc2cc(C(O)c3c(F)c(OC)cc(OC)c3F)oc2cn1` (racemic) [Example 5, (±)-N-(2-((2-((2,6-difluoro-3,5-dimethoxyphenyl)(hydroxy)methyl)furo[2,3-c]pyridin-5-yl)amino)-5-(4-ethylpiperazin-1-yl)phenyl)acrylamide], the IC50 in assay [1] (numeric bounds) is more than 10000 nM; in assay [2], less than 100 nM.

As to `C=CC(=O)Nc1cc(N2CCN(CC)CC2)ccc1Nc1cc2cc(C(C)(O)c3c(F)c(OC)cc(OC)c3F)oc2cn1` (racemic) [Example 7, (±)-N-(2-((2-(1-(2,6-difluoro-3,5-dimethoxyphenyl)-1-hydroxyethyl)furo[2,3-c]pyridin-5-yl)amino)-5-(4-ethylpiperazin-1-yl)phenyl)acrylamide], the values for the IC50 in assay [1] (numeric bounds) and in assay [2] were more than 10000 nM and 100 to 1000 nM, respectively.

For the compound `C=CC(=O)Nc1cn(C)nc1Nc1cc2cc(C(O)c3c(F)c(OC)cc(OC)c3F)oc2cn1` (racemic) [Example 10, (±)-N-(3-((2-((2,6-difluoro-3,5-dimethoxyphenyl)(hydroxy)methyl)furo[2,3-c]pyridin-5-yl)amino)-1-methyl-1H-pyrazol-4-yl)acrylamide], the IC50 was more than 3300 nM in assay [1] (numeric bounds) and 100 to 1000 nM in assay [2].

Turning to `C=CC(=O)N[C@H]1CCOC[C@H]1Nc1cc2cc(C(O)c3c(F)c(OC)cc(OC)c3F)oc2cn1` (mixture of isomers) [Example 14, (±)N-((3S,4S)-3-((2-((2,6-difluoro-3,5-dimethoxyphenyl)(hydroxy)methyl)furo[2,3-c]pyridin-5-yl)amino)tetrahydro-2H-pyran-4-yl)acrylamide], the IC50 in assay [1] (numeric bounds) is more than 10000 nM; in assay [2], 100 to 1000 nM.

Take `C=CC(=O)Nc1cccc(C)c1Nc1cc2cc(C(O)c3c(F)c(OC)cc(OC)c3F)sc2cn1` (racemic) [Example 28, (±)-N-(2-((2-((2,6-difluoro-3,5-dimethoxyphenyl)(hydroxy)methyl)thieno[2,3-c]pyridin-5-yl)amino)-3-methylphenyl)acrylamide]: the IC50 in assay [1] (numeric bounds) was more than 10000 nM; in assay [2] it was less than 100 nM.

In the case of `C=CC(=O)Nc1cccc(Cl)c1Nc1cc2cc(C(O)c3c(F)c(OC)cc(OC)c3F)oc2cn1` (racemic) [Example 29, (±)-N-(3-chloro-2-((2-((2,6-difluoro-3,5-dimethoxyphenyl)(hydroxy)methyl)furo[2,3-c]pyridin-5-yl)amino)phenyl)acrylamide], the IC50 in assay [1] (numeric bounds) was more than 10000 nM; in assay [2], less than 100 nM.

Turning to `C=CC(=O)Nc1cccc(C(F)(F)F)c1Nc1cc2cc(C(O)c3c(F)c(OC)cc(OC)c3F)oc2cn1` (racemic) [Example 30, (±)-N-(2-((2-((2,6-difluoro-3,5-dimethoxyphenyl)(hydroxy)methyl)furo[2,3-c]pyridin-5-yl)amino)-3-(trifluoromethyl)phenyl)acrylamide], the results for the IC50 in assay [1] (numeric bounds) and in assay [2] were more than 10000 nM and 100 to 1000 nM, respectively.

With `C=CC(=O)Nc1cc(N2CCN(CC)CC2)ccc1Nc1ncc2oc(C(O)c3c(F)c(OC)cc(OC)c3F)cc2n1` (racemic) [Example 31, (±)-N-(2-((6-((2,6-difluoro-3 ,5-dimethoxyphenyl)(hydroxy)methyl)furo[3,2-d]pyrimidin-2-yl)amino)-5-(4-ethylpiperazin-1-yl)phenyl)acrylamide], the IC50 in assay [1] (class symbols) is 1000 to 10000 nM; in assay [2], less than 100 nM.

With `C=CC(=O)Nc1cc(N2CCN(CC)CC2)ccc1Nc1cc2cc(C(O)c3c(F)c(OC)cc(OC)c3F)oc2cn1` (single isomer, unassigned) [Example 13A, N-(2-((2-((2,6-difluoro-3,5-dimethoxyphenyl)(hydroxy)methyl)furo[2,3-c]pyridin-5-yl)amino)-5-(4-ethylpiperazin-1-yl)phenyl)acrylamide], the IC50 in assay [1] (numeric bounds) is more than 10000 nM; in assay [2], less than 100 nM.

For `C=CC(=O)Nc1cc(N2CCN(CC)CC2)ccc1Nc1cc2cc(C(O)c3c(F)c(OC)cc(OC)c3F)oc2cn1` (single isomer, unassigned) [Example 13B, N-(2-((2-((2,6-difluoro-3,5-dimethoxyphenyl)(hydroxy)methyl)furo[2,3-c]pyridin-5-yl)amino)-5-(4-ethylpiperazin-1-yl)phenyl)acrylamide], the IC50 in assay [1] (numeric bounds) is more than 10000 nM.

Consider `C=CC(=O)Nc1cc(N2CCN(CC)CC2)ccc1Nc1ccc2c(ccn2Cc2c(F)c(OC)cc(OC)c2F)n1` [Example 1, N-(2-((1-(2,6-difluoro-3,5-dimethoxybenzyl)-1H-pyrrolo[3,2-b]pyridin-5-yl)amino)-5-(4-ethylpiperazin-1-yl)phenyl)acrylamide], for which the IC50 in assay [1] (numeric bounds) was more than 3300 nM; in assay [2], 100 to 1000 nM.

For `C=CC(=O)Nc1cc(N2CCN(CC)CC2)ccc1Nc1cc2cc(C(=O)c3c(F)c(OC)cc(OC)c3F)oc2cn1` [Example 3, N-(2-((2-(2,6-difluoro-3,5-dimethoxybenzoyl)furo[2,3-c]pyridin-5-yl)amino)-5-(4-ethylpiperazin-1-yl)phenyl)acrylamide], the IC50 in assay [1] (numeric bounds) was more than 10000 nM; in assay [2] it was less than 100 nM.

In the case of `C=CC(=O)Nc1cc(N2CCN(CC)CC2)ccc1Nc1cc2cc(C(F)(F)c3c(F)c(OC)cc(OC)c3F)oc2cn1` [Example 8, N-(2-((2-((2,6-difluoro-3,5-dimethoxyphenyl)difluoromethyl)furo[2,3-c]pyridin-5-yl)amino)-5-(4-ethylpiperazin-1-yl)phenyl)acrylamide], the values for the IC50 in assay [1] (numeric bounds) and in assay [2] were more than 10000 nM and 100 to 1000 nM, respectively.

Take `C=CC(=O)Nc1cc(N2CCN(CC)CC2)ccc1Nc1cc2cc(C(=O)c3cc(OC)cc(OC)c3)oc2cn1` [Example 11, N-(2-((2-(3,5-dimethoxybenzoyl)furo[2,3-c]pyridin-5-yl)amino)-5-(4-ethylpiperazin-1-yl)phenyl)acrylamide]: the IC50 in assay [1] (class symbols) was in the range of 1000 to 10000 nM; in assay [2], 100 to 1000 nM.

In the case of `C=CC(=O)N[C@H]1CCOC[C@H]1Nc1cc2cc(C(=O)c3c(F)c(OC)cc(OC)c3F)oc2cn1` [Example 12, N-((3S,4S)-3-((2-(2,6-difluoro-3,5-dimethoxybenzoyl)furo[2,3-c]pyridin-5-yl)amino)tetrahydro-2H-pyran-4-yl)acrylamide], the IC50 is more than 10000 nM in assay [1] (numeric bounds) and 100 to 1000 nM in assay [2].

`C=CC(=O)Nc1cc(N2CCN(CC)CC2)ccc1Nc1cc2cc(C(=O)c3c(F)c(OC)cc(OC)c3F)sc2cn1` [Example 16, N-(2-((2-(2,6-difluoro-3,5-dimethoxybenzoyl)thieno[2,3-c]pyridin-5-yl)amino)-5-(4-ethylpiperazin-1-yl)phenyl)acrylamide]: the IC50 in assay [1] (class symbols) was 1000 to 10000 nM; in assay [2] it was less than 100 nM.

With `C=CC(=O)Nc1cccc(C)c1Nc1cc2cc(C(=O)c3c(F)c(OC)cc(OC)c3F)oc2cn1` [Example 17, N-(2-((2-(2,6-difluoro-3,5-dimethoxybenzoyl)furo[2,3-c]pyridin-5-yl)amino)-3-methylphenyl)acrylamide], the IC50 in assay [1] (numeric bounds) is more than 10000 nM; in assay [2], less than 100 nM.

With `C=CC(=O)Nc1cc(N2CCN(CC)CC2)ccc1Nc1cc2cc(C(=O)c3c(F)c(OC)cc(OC)c3F)n(C)c2cn1` [Example 19, N-(2-((2-(2,6-difluoro-3,5-dimethoxybenzoyl)-1-methyl-1H-pyrrolo[2,3-c]pyridin-5-yl)amino)-5-(4-ethylpiperazin-1-yl)phenyl)acrylamide], the IC50 fell in the range of 1000 to 10000 nM in assay [1] (class symbols) and 100 to 1000 nM in assay [2].

On to `C=CC(=O)Nc1cc(N2CCN(CC)CC2)ccc1Nc1ncc2oc(C(=O)c3c(F)c(OC)cc(OC)c3F)cc2n1` [Example 20, N-(2-((6-(2,6-difluoro-3,5-dimethoxybenzoyl)furo[3,2-d]pyrimidin-2-yl)amino)-5-(4-ethylpiperazin-1-yl)phenyl)acrylamide], for which the IC50 was 1000 to 10000 nM in assay [1] (class symbols) and less than 100 nM in assay [2].

With `C=CC(=O)Nc1cc(N2CCN(CC)CC2)ccc1Nc1cc2cc(C(=O)c3c(F)c(OC)cc(OC)c3F)[nH]c2cn1` [Example 21, N-(2-((2-(2,6-difluoro-3,5-dimethoxybenzoyl)-1H-pyrrolo[2,3-c]pyridin-5-yl)amino)-5-(4-ethylpiperazin-1-yl)phenyl)acrylamide], the IC50 in assay [1] (numeric bounds) was more than 3300 nM; in assay [2] it was 100 to 1000 nM.

For the compound `C=CC(=O)Nc1cc(N2CCN(CC)CC2)ccc1Nc1cc2c(C(=O)c3c(F)c(OC)cc(OC)c3F)c[nH]c2cn1` [Example 22, N-(2-((3-(2,6-difluoro-3,5-dimethoxybenzoyl)-1H-pyrrolo[2,3-c]pyridin-5-yl)amino)-5-(4-ethylpiperazin-1-yl)phenyl)acrylamide], the figures for the half-inhibitory concentration (IC50) in assay [1] (class symbols) and in assay [2] were 1000 to 10000 nM and 100 to 1000 nM, respectively.

For `C=CC(=O)Nc1cccc(C)c1Nc1ncc2oc(C(=O)c3c(F)c(OC)cc(OC)c3F)cc2n1` [Example 23, N-(2-((6-(2,6-difluoro-3,5-dimethoxybenzoyl)furo[3,2-d]pyrimidin-2-yl)amino)-3-methylphenyl)acrylamide], the half-inhibitory concentration (IC50) in assay [1] (numeric bounds) is more than 6650 nM; in assay [2] it was less than 100 nM.

`C=CC(=O)Nc1cccc(C)c1Nc1cc2cc(C(=O)c3c(F)c(OC)cc(OC)c3F)sc2cn1` [Example 24, N-(2-((2-(2,6-difluoro-3,5-dimethoxybenzoyl)thieno[2,3-c]pyridin-5-yl)amino)-3-methylphenyl)acrylamide]: the IC50 was more than 6650 nM in assay [1] (numeric bounds) and less than 100 nM in assay [2].
